Assay results reported in ChEMBL document CHEMBL1201862, “PubChem BioAssay data set” (2004).
Values belong to the compound of their own block, whether it stands above or below them. Activity calls are given as the source filed them.

Key:
CHO-K1 = assay: (§1) Counterscreen for antagonists of the orexin 1 receptor (OX1R; HCRTR1): Homogeneous time resolved fluorescence (HTRF)-based cell-based dose response assay to identify antagonists of the parental CHO-K1 cell line. [Related pubchem assays (depositor defined):AID434989, AID435008, AID463079, AID485270, AID492963, AID492964, AID492965, AID493232, AID504699, AID504701]; assay type: functional; settings: Cricetulus griseus
[1] = as §1, with “Fluorescence-based” for “Homogeneous time resolved fluorescence (HTRF)-based”, “cell-based high throughput” for “cell-based”, “CHO” for “CHO-K1”; assay type: functional
[2] = molecular target: T1, Orexin/Hypocretin receptor type 1 (Homo sapiens, UniProt O43613); assay: Homogeneous Time Resolved Fluorescence (HTRF)-based cell-based high throughput dose response assay for antagonists of the orexin 1 receptor (OX1R; HCRTR1). [Related pubchem assays (depositor defined):AID434989, AID435008, AID463079, AID485270, AID492963, AID492964, AID492965, AID493232, AID504717, AID504718]; assay type: functional
T1 sequence (O43613 whole entry): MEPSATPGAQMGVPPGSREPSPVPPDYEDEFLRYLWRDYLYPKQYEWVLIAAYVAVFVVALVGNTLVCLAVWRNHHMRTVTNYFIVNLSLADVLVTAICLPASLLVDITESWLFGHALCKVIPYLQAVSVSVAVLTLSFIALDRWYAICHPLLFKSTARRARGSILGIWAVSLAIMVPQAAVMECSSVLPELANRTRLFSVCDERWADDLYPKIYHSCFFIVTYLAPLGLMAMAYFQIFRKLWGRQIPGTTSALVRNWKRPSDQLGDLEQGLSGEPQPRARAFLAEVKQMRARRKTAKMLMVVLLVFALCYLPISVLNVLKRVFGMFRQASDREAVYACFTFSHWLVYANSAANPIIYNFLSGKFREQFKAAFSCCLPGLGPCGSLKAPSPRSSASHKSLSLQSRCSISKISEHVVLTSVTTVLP

[3] = molecular target: T1, Orexin/Hypocretin receptor type 1; assay: Fluorescence-based cell-based high throughput dose response assay for antagonists of the orexin 1 receptor (OX1R; HCRTR1). [Related pubchem assays (depositor defined):AID434989, AID435008, AID463079, AID485270, AID492963, AID492964, AID492965, AID493232, AID504717, AID504718]; assay type: functional
[4] = molecular target: DNA damage-inducible transcript 3 protein (Mus musculus, UniProt P35639); assay type: functional, Cricetulus griseus
X-box-binding protein 1 = X-box-binding protein 1 (Homo sapiens, UniProt P17861); assay type: functional, Cricetulus griseus;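 note: confirmatory dose-response counter-screen serving a CHOP assay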
[5] = molecular target: ADP-ribosylation factor GTPase-activating protein 1 (Rattus norvegicus, UniProt Q62848); assay: Fluorescence polarization-based biochemical high throughput dose response screening assay to identify inhibitors of ADP-ribosylation factor GTPase activating protein 1 (ARFGAP1).; assay type: functional
[6] = molecular target: Arf-GAP with SH3 domain, ANK repeat and PH domain-containing protein 1 (Homo sapiens, UniProt Q9ULH1); assay type: functional;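 note: biochemical fluorescence polarization dose–response screen measuring inhibition of ASAP1; ASAP1 GAP domain stimulating GTP hydrolysis by truncated human ARF1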
[7] = molecular target: DNA dC->dU-editing enzyme APOBEC-3A (Homo sapiens, UniProt P31941); assay: Dose Response confirmation of small molecule APOBEC3A DNA Deaminase Inhibitors via a fluorescence-based single-stranded DNA deaminase assay. [Related pubchem assays (depositor defined):AID493011, AID493024]; assay type: functional
[8] = molecular target: DNA dC->dU-editing enzyme APOBEC-3G (Homo sapiens, UniProt Q9HC16); assay type: functional;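 note: Dose-response counterscreen measuring inhibition of APOBEC3G DNA deaminase activity, run while confirming APOBEC3A inhibitors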
Chain of DNA dC->dU-editing enzyme APOBEC-3G (Q9HC16 whole entry): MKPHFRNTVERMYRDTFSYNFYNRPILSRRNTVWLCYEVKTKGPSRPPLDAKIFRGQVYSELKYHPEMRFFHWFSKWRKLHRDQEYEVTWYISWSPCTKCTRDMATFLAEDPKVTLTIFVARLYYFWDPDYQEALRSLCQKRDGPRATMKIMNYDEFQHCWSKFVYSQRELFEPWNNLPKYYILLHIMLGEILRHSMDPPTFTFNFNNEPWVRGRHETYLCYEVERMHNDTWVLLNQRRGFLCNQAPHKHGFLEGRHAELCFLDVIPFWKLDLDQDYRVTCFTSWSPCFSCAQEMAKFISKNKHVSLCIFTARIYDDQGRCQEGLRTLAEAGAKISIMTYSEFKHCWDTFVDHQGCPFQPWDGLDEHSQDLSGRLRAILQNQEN

Chain of X-box-binding protein 1 (P17861 whole entry): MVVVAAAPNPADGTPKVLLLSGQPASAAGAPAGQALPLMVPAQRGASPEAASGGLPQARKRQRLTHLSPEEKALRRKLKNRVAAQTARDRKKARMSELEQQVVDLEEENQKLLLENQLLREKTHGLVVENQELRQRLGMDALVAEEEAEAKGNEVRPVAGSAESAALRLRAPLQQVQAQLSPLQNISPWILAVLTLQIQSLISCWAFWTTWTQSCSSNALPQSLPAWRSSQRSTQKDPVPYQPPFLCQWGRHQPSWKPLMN
Chain of DNA damage-inducible transcript 3 protein (P35639 whole entry): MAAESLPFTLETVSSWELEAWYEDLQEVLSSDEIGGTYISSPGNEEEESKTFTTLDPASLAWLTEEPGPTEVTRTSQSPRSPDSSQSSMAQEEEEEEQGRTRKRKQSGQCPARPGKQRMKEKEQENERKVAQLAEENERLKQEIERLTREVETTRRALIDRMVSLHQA
Chain of ADP-ribosylation factor GTPase-activating protein 1 (Q62848 whole entry, the tested form may be a part): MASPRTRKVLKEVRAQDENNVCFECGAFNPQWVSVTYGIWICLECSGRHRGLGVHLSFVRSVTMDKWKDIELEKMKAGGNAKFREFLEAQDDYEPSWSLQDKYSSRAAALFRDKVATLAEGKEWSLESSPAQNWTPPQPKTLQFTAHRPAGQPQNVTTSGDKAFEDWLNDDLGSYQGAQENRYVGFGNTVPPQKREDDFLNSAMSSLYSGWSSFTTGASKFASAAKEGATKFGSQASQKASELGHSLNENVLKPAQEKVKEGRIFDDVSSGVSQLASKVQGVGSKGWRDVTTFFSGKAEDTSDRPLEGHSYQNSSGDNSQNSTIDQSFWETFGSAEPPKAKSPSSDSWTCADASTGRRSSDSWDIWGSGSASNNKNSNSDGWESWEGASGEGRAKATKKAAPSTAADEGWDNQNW
Chain of Arf-GAP with SH3 domain, ANK repeat and PH domain-containing protein 1 (Q9ULH1 whole entry, the tested form may be a part): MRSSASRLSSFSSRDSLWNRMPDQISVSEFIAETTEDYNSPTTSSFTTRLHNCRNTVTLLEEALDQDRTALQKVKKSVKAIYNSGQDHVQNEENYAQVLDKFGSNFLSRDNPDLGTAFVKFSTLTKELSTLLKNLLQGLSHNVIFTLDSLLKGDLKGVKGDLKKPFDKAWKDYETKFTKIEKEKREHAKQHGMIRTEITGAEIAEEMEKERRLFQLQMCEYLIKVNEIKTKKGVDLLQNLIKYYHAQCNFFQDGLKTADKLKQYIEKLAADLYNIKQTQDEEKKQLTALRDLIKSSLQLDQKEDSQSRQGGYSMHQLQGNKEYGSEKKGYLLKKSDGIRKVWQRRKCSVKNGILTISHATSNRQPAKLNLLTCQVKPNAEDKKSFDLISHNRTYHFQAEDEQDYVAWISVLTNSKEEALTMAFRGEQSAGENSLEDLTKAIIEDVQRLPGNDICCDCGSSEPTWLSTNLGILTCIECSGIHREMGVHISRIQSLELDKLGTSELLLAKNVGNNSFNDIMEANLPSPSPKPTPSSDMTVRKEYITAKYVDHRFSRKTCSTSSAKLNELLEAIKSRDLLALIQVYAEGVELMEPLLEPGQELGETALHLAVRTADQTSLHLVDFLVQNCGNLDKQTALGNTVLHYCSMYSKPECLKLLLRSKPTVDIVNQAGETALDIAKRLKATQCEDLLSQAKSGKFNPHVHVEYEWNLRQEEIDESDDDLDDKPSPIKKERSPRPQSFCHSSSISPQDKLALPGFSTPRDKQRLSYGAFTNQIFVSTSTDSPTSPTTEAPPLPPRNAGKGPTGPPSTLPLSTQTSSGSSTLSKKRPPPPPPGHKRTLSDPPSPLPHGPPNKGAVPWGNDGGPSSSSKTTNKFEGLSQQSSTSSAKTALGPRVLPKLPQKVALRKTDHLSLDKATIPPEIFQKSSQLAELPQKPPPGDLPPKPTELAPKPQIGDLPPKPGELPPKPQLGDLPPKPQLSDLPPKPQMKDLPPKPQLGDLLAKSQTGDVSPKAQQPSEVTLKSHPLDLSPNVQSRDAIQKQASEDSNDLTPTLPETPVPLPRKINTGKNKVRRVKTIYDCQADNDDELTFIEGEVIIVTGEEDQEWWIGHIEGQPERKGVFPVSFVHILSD
Chain of DNA dC->dU-editing enzyme APOBEC-3A (P31941 whole entry): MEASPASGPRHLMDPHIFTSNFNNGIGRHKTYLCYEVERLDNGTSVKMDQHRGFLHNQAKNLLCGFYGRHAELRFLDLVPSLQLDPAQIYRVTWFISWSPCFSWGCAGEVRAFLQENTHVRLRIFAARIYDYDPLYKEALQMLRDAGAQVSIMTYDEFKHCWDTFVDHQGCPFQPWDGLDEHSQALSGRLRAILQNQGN

SMILES: Cc1ccc(N(CC(=O)NCCc2ccc(Cl)cc2)S(=O)(=O)c2c(C)noc2C)cc1
IC50 (CHO-K1): > 66.2 µM (inactive)
IC50 [1]: > 49.8 µM (inactive)
IC50 [2]: 0.585 µM (active)
IC50 [3]: 2.87 µM (active)

Absolute IC50 (XBP1) (X-box-binding protein 1): 10 µM
IC50 [5]: 18.4 µM (inactive)
IC50 [6]: 18.4 µM (inactive)
SMILES: Cn1c(=O)n(CCOc2ccc(Cl)cc2Cl)c2ccccc21
Absolute IC50 (CHOP) [4]: 10 µM

SMILES: O=[N+]([O-])c1ccccc1/C=N/NC1=NCCN1
IC50 [7]: 5.96 µM (active)
IC50 [8]: 6.95 µM (active)
